Assay results published in US9023878B2 (Neurophyxia B.V., priority 2010, dated 2015).
“And” between values parts separate entries of the source, which are not always exact repeats. Equal entries are not always repeated.

Experiments:
[1] = Solubility of 2-IB in 10% SBE-CD at different pH adjusted with 0.1 M citric acid (HPLC); type: physicochemical
Experimental: The experimental steps are shown as below.
1. Weigh 0.5 g of SBE-CD into 10 ml glass vial
2. Add 3 ml WFI into each vial to dissolve SBE-CD
4. Magnetic stirring for 1 h
5. Adjust pH to target pH with 0.1 M citric acid
6. Determine the weight of 0.1 M citric acid added
7. Add WFI to total weight of 5 g
8. Measure pH again after 1 hour stirring
9. Filtrate through the formulation through PVDF 0.22 um filter

[2] = Solubility of 2-IB in water at different pH; type: physicochemical
[3] = Solubility/encapsulation in cyclodextrin solutions (excess 2-IB, three days, filtered, RP-HPLC)
Experimental: An excess of 2-IB was added to the cyclodextrin solutions, mixed at room temperature for three days and then filtered to remove non-encapsulated) non-solubilised 2-IB.

[4] = Formulation preparation: dissolution and titration to higher pH; type: physicochemical; conditions: 1.5 mg/g of 2-IB at pH 7.0, overnight stirring
From the text: This might be due to the different approaches for the solubility testing and the formulation preparation. […] The six formulations were all transparent and colorless solutions.
It is not feasible to increase the solubility by preparing a formulation at a low pH first and then titrate to a high pH.

[5] = Physical stability of saturated 10% SBE-CD solutions, 5 days at 5° C. and RT; type: physicochemical; conditions: saturated solution; note: key: −: Precipitation of 2-IB; +: no precipitation
[6] = Novel excipients (Cremophor EL, Solutol HS 15): 2-IB content of formulations at t=0 and after 48 hours
Experimental: Finally two novel excipients were tested, Cremophor EL and Solutol HS 15.
A range of 2-IB formulations were prepared that were stored for 48 hours and measured for 2-IB content:

SMILES: N=C1N[C@H]2[C@H](CS[C@H]2CCCCC(=O)O)N1 [Formulation 2-IB, 2-iminobiotin]
- Solubility of 2-IB ([1]; pH 4.0): 13.08 mg/g
- Solubility of 2-IB ([1]; pH 4.5): 9.00 mg/g
- Solubility of 2-IB ([1]; pH 5.0): 5.2 mg/g and 5.21 mg/g
- Solubility of 2-IB ([1]; pH 5.1): 5.30 mg/g
- Solubility of 2-IB ([1]; pH 5.5): 3.29 mg/g
- Solubility of 2-IB ([1]; pH 6.2): 1.94 mg/g
- Solubility of 2-IB ([1]; pH 7.0): 1.71 mg/g
- solubility in water ([2]; pH 3.5): around 4.5 mg/ml
- solubility in water ([2]; pH 5): around 0.59 mg/ml
- solubility in water ([2]; pH 7.4): around 0.34 mg/ml
- concentration of 2-IB ([3]; 0% cyclodextrin, Citrate pH 4.0, final pH 4.0): 1.7 mg/mL
- concentration of 2-IB ([3]; 0% cyclodextrin, Citrate pH 5.0, final pH 5.0): 0.6 mg/mL
- concentration of 2-IB ([3]; 0% cyclodextrin, WFI, final pH 6.5): 0.4 mg/mL
- concentration of 2-IB ([3]; 2.5% HP-CD, Citrate pH 4.0, final pH 4.2): 2.5 mg/mL
- concentration of 2-IB ([3]; 2.5% HP-CD, Citrate pH 5.0, final pH 5.1): 0.9 mg/mL
- concentration of 2-IB ([3]; 2.5% HP-CD, WFI, final pH 6.5): 0.5 mg/mL
- concentration of 2-IB ([3]; 2.5% SBE-CD, Citrate pH 4.0, final pH 4.3): 3.7 mg/mL
- concentration of 2-IB ([3]; 2.5% SBE-CD, Citrate pH 5.0, final pH 5.0): 1.9 mg/mL
- concentration of 2-IB ([3]; 2.5% SBE-CD, WFI, final pH 6.3): 0.7 mg/mL
- concentration of 2-IB ([3]; 5% HP-CD, Citrate pH 4.0, final pH 4.3): 3.0 mg/mL
- concentration of 2-IB ([3]; 5% HP-CD, Citrate pH 5.0, final pH 5.1): 1.2 mg/mL
- concentration of 2-IB ([3]; 5% HP-CD, WFI, final pH 6.5): 0.5 mg/mL
- concentration of 2-IB ([3]; 5% SBE-CD, Citrate pH 4.0, final pH 4.4): 5.5 mg/mL
- concentration of 2-IB ([3]; 5% SBE-CD, Citrate pH 5.0, final pH 5.1): 2.9 mg/mL
- concentration of 2-IB ([3]; 5% SBE-CD, WFI, final pH 6.5): 1.0 mg/mL
- concentration of 2-IB ([3]; 10% HP-CD, Citrate pH 4.0, final pH 4.5): 4.1 mg/mL
- concentration of 2-IB ([3]; 10% HP-CD, Citrate pH 5.0, final pH 5.2): 1.6 mg/mL
- concentration of 2-IB ([3]; 10% HP-CD, WFI, final pH 6.5): 0.6 mg/mL
- concentration of 2-IB ([3]; 10% SBE-CD, Citrate pH 4.0, final pH 4.6): 8.0 mg/mL
- concentration of 2-IB ([3]; 10% SBE-CD, Citrate pH 5.0, final pH 5.1): 4.6 mg/mL
- concentration of 2-IB ([3]; 10% SBE-CD, WFI, final pH 6.5): 1.5 mg/mL
- concentration of 2-IB ([3]; 20% HP-CD, Citrate pH 4.0, final pH 4.7): 5.1 mg/mL
- concentration of 2-IB ([3]; 20% HP-CD, Citrate pH 5.0, final pH 5.3): 2.1 mg/mL
- concentration of 2-IB ([3]; 20% HP-CD, WFI, final pH 6.6): 0.9 mg/mL
- concentration of 2-IB ([3]; 20% SBE-CD, Citrate pH 4.0, final pH 4.9): 11.4 mg/mL
- concentration of 2-IB ([3]; 20% SBE-CD, Citrate pH 5.0, final pH 5.3): 7.0 mg/mL
- concentration of 2-IB ([3]; 20% SBE-CD, WFI, final pH 6.7): 2.4 mg/mL
- concentration of 2-IB ([3]; 40% HP-CD, Citrate pH 4.0, final pH 5.0): 5.6 mg/mL
- concentration of 2-IB ([3]; 40% HP-CD, Citrate pH 5.0, final pH 5.6): 2.6 mg/mL
- concentration of 2-IB ([3]; 40% HP-CD, WFI, final pH 6.7): 1.2 mg/mL
- dissolution on formulation preparation [4]: did not dissolve completely after overnight stirring
- 5 days at 5° C. ([5]; pH 4.0): −
- 5 days at RT ([5]; pH 4.0): +
- 5 days at 5° C. ([5]; pH 4.5): −
- 5 days at RT ([5]; pH 4.5): +
- 5 days at 5° C. ([5]; pH 5.0): −
- 5 days at RT ([5]; pH 5.0): +
- 5 days at 5° C. ([5]; pH 5.1): −
- 5 days at RT ([5]; pH 5.1): +
- 5 days at 5° C. ([5]; pH 5.5): −
- 5 days at RT ([5]; pH 5.5): +
- 5 days at 5° C. ([5]; pH 6.2): −
- 5 days at RT ([5]; pH 6.2): +
- 5 days at 5° C. ([5]; pH 7.0): −
- 5 days at RT ([5]; pH 7.0): +
- Solutol HS 15 concentration giving optimal solubility ([6]; 5-10-15-20-25% Solutol HS 15 tested at approximately 5 mg/ml): 20%
- pH at which the formulation could be prepared ([6]; 20% Solutol HS 15 and 5% Dextrose in water): 3.5-3.6
- Concentration t = 0 ([6]; Solutol HS 15 formulation, nominal 5.0 mg/ml, pH 2.4, after filtration): 5.65 mg/mL
